Consider seven compounds from publication PMC11161644, “An effective and rapidly degradable disinfectant from disinfection byproducts” (Nature Communications, 2024).

Several values for one entry are separate records, joined by “and”; a condition that tells them apart may be missing. Identical values can stand only once. Like-named read-outs stand apart in the source and are kept apart here.

Data set [1] concerns P. dumerilii embryos. The data set can be described thus: Developmental toxicity (EC50) of OH-DCQ and 2,6-DCQ to P. dumerilii embryos. The data set is classed as in vivo, Platynereis dumerilii. As to the method:
The third aliquot was subjected to the developmental toxicity assay with P. dumerilii embryos. The aliquot was dissolved in 10 mL of seawater and adjusted to pH 8.2. The embryos at 12-h postfertilization were exposed to different levels of OH-DCQ for 12 h. By 24-h postfertilization, normally and abnormally developed embryos were counted using an inverted stereomicroscope. Based on the percentage of normally developed embryos, an exposure−response curve was generated. The median effective concentration (EC50) was determined using SigmaPlot 12 software. The developmental toxicity of 2,6-DCQ was also evaluated for comparison. The toxicity bioassay was conducted in duplicate.

The subject of data set [2] is C. albicans (ATCC 14053). The data set can be described thus: Inactivation of C. albicans (contact time 5 min). Conditions: for C. albicans inactivation rate constant k / Dose for achieving 3-log inactivation of C. albicans: pH 7.2, contact time 5 min; for log reduction at 300 µg/mL: Candida albicans, ATCC14053, 5 min, dose 300 mg L-1, pH 7.2, contact time 5 min. The data set is classed as cell-based, Candida albicans. As to the method: The chemicals and reagents used are detailed in Supplementary Note 1. The bacteria E. coli (ATCC 25922) and S. aureus (ATCC 25923) were cultured aerobically in Luria-Bertani broth (Sigma-Aldrich) and Tryptone Soya broth (Oxoid), respectively, at 37 °C for 16 h. The fungus C. albicans (ATCC 14053) was aerobically cultured in Sabouraud Dextrose broth (Difco) at 37 °C for 24 h. The microorganism cells were harvested by centrifugation at 1200×g (10 min, 4 °C) and resuspended in phosphate-buffered saline (PBS, 10 mM, pH 7.2). The disinfection experiments were performed in PBS solutions (10 mM, pH 7.2) with an initial concentration of E. coli, S. aureus, or C. albicans of 10^6‒10^7 cells per milliliter. A contact time of 5 min was used in accordance with the recommended time range of 0.25–10 min by USEPA for surface disinfection. Preliminary tests were conducted to determine the appropriate range of DBP doses. The appropriate dose range was established when the lowest and highest doses could achieve <1-log and >3-log of microbial inactivation, respectively. Based on the preliminary results, a series of doses of DBPs were added to the cell suspensions at room temperature (22 ± 1 °C). After the contact time of 5 min, the microorganism cells were enumerated following a membrane filter method. Briefly, serial 10-fold dilutions were conducted for the disinfected samples and the control sample without disinfection. Each diluted suspension was subjected to filtration through 0.45-μm membrane, which was then placed on a petri dish. The Petri dishes containing E. coli, S. aureus, and C. albicans were incubated in m-FC medium (Becton Dickinson & Co) at 45 °C for 24 h, in Tryptone Soya broth at 37 °C for 24 h and in Sabouraud Dextrose broth at 37 °C for 24 h, respectively. After incubation, the colony-forming units within a statistically reasonable range (20–80) were counted.

The test system of data set [3] is rat. Particulars: oral; cited from earlier work.
For data set [4], the system named is bacteriophage MS2 (ATCC 15597-B1). The data set can be described thus: Inactivation of bacteriophage MS2 (double-layer agar, contact time 5 min). In kind it is cell-based. Particulars: for Dose for achieving 3-log inactivation of MS2 / MS2 inactivation rate constant k: pH 7.2, contact time 5 min; for log reduction at 300 µg/mL: Escherichia phage MS2, ATCC15597, 5 min, dose 300 mg L-1, pH 7.2, contact time 5 min. As to the method:
The bacteriophage MS2 (ATCC 15597-B1) was propagated in the host E. coli (ATCC 15597) in Tryptone Soya broth at 37 °C for 16 h. The viruses were separated from the bacterial debris and purified by centrifuging the phage culture (4000×g, 10 min, 4 °C) and filtering the lysate with a 0.2 μm polyethersulfone sterile filter. The filtrate was then diluted in PBS (10 mM, pH 7.2) to an initial MS2 concentration of 10^9‒10^10 plaque-forming units […]. To initiate the disinfection experiments, a series of DBP doses were added to the MS2 suspension at room temperature (22 ± 1 °C). […] Briefly, serial 10-fold dilutions were conducted for the disinfected samples and the control sample without disinfection. Each dilution was mixed with the host E. coli in the soft agar and the mixture was immediately spread onto a Petri dish with Tryptone Soya agar. After the Petri dishes were incubated at 37 °C for 16 h, the plaque-forming units were counted. The disinfection experiments were performed in duplicate. All the materials for the disinfection experiments were autoclaved before use.

Data set [5] in a line: Degradation in seawater with simulated solar irradiation. As to the method:
The solar photolysis experiments were conducted in a chamber equipped with eight simulated sunlight full-spectrum lamps (BlueMax 5900, Full Spectrum Solutions). The temperature in the chamber was maintained at 20 °C. The total intensity of simulated sunlight was determined using a digital photometer (DT-1010B, Shenzhen Golden Octopus, China). Quartz flasks were positioned in the chamber where the total intensity of simulated sunlight was 4.79 ± 0.04 mW cm^−2 for each quartz flask. […] A DBP was added at 10 mg L^−1 to 50 mL pretreated seawater (pH 8.2) in the quartz flasks and exposed to the simulated solar irradiation for 0‒96 h. Every 8 h, the quartz flasks were rotated in and out of the chamber, and the sample volume was determined and adjusted with ultrapure water to account for any water evaporation. During the solar irradiation experiments, the sample was adjusted to pH 6.2 and 7.2 or maintained at pH 8.2 by adding 4 mM phosphate buffer (pH 6.2, 7.2, and 8.2, respectively).
For the DBP samples with and without sunlight, aliquots were taken at a specific reaction time. The sample aliquots were analyzed using Agilent high-performance liquid chromatography (HPLC) equipped with a Poroshell 120 EC-C18 column (4.6 × 150 mm, 4 µm particle size, Agilent) and a UV detector. The mobile phase, consisting of water (pre-adjusted to pH 2 with phosphoric acid) and acetonitrile at 50/50 (v/v), was applied at a flow rate of 1.0 mL min^−1. PCMX, 2,4-dihalophenols and 5-halosalicylic acids were detected at the wavelength of 230 nm. 2,5-Dihalohydroquinones and 2,6-DCQ were detected at the wavelength of 280 nm. All the degradation experiments were conducted in duplicate.

The mark [6] stands for this setting: seawater pH 8.2, solar irradiation, 0 h.
[7] abbreviates: pretreated seawater under simulated solar irradiation, pH 8.2.
Setting [8] is: seawater pH 8.2, solar irradiation, 0 min.
Setting [9] is: pH 7.2, C. albicans, read-out: Log (N/N0).
Where [10] appears, read: pH 7.2, MS2, read-out: Log (N/N0).

Usually half-life stands for the time needed for the level to fall by half in the phase considered. A word on the LD50: it is the dose expected to kill half of the subjects tested.

Turning to `O=C1C=C(Cl)C(=O)C(Cl)=C1` [2,6-DCQ, 2,6-dichlorobenzoquinone], the Normal development in data set [1] (2,6-DCQ concentration 0.2 mg L-1) is 80.7017% and 79.2079%; in data set [1] (2,6-DCQ concentration 0.3 mg L-1) it was 76.7442% and 82.4428%; in data set [1] (2,6-DCQ concentration 0.4 mg L-1) it was 80% and 80.822%; in data set [1] (2,6-DCQ concentration 0.5 mg L-1) it was 62.0155% and 62.3077%; in data set [1] (2,6-DCQ concentration 0.6 mg L-1), 42.1875% and 37.2727%; in data set [1] (2,6-DCQ concentration 0.75 mg L-1), 16.2963% and 20.7921%. Besides, in data set [1] (2,6-DCQ concentration 1 mg L-1), the Normal development is 7.407% and 6.667%. Besides, the “Developmental toxicity relative to OH-DCQ (times higher)” value in data set [1] (P. dumerilii embryos) is on record as 149 times. For the same compound, the “C. albicans inactivation rate constant k” value in data set [2] was found to be 31300 µL/min/mg. For the same compound, the “Dose for achieving 3-log inactivation of C. albicans” value in data set [2] is 35.4 mg L−1. Also, the LD10 in data set [3] is recorded as 500 mg/kg. For the same compound, the “Dose for achieving 3-log inactivation of MS2” value in data set [4] is listed as 46.1 mg L−1. In addition, in data set [4], the “MS2 inactivation rate constant k” value was found to be 14200 µL/min/mg. For the same compound, the half-life at 10 mg L−1 in data set [5] (buffer, pH 6.2) was 4.13 h; in data set [5] (buffer, pH 7.2) it was 3.2 h; in data set [5] (buffer, pH 8.2), 1.33 h. Also, the “Degradation rate constant k” value in data set [5] (pH 6.2, with solar irradiation) was 0.168 h⁻¹; in data set [5] (pH 7.2, with solar irradiation) it was 0.217 h⁻¹; in data set [5] (seawater pH 8.2, with solar irradiation) it was 0.520 h‒1. Besides, the “Ln (C/C0)” value in data set [5] (pH 6.2 with solar irradiation, 0 h) is reported as 0; in data set [5] (pH 7.2 with solar irradiation, 0 h), 0; in data set [5] (setting [6]), 0.

In the case of `Oc1cc(Br)c(O)cc1Br` [2,5-DBHQ, 2,5-dibromohydroquinone], in data set [5] (setting [7]), the half-life at 10 mg L−1 was 0.16 h. Moreover, the “Ln (C/C0)” value in data set [5] (setting [8]) is on record as 0.

Regarding `Oc1ccc(I)cc1I` [2,4-DIPh, 2,4-diiodophenol], the results for the log reduction at 300 µg/mL in data set [2] (setting [9]) and in data set [4] (setting [10]) were 5.49 and 2.17, respectively. This compound also gave a half-life at 10 mg L−1 in data set [5] (buffer, pH 8.2) of 83 h. In addition, the “Ln (C/C0)” value in data set [5] (setting [6]) is on record as 0.

Take `O=C1C=C(Cl)C(=O)C(Cl)=C1O` [OH-DCQ, 3-hydroxyl-2,6-dichloro-1,4-benzoquinone]: the Normal development in data set [1] (OH-DCQ concentration 15 mg L-1) is 92.9293% and 86.7257%; in data set [1] (OH-DCQ concentration 25 mg L-1) it was 83.1776% and 81.579%; in data set [1] (OH-DCQ concentration 35 mg L-1), 84.1584% and 85.7144%; in data set [1] (OH-DCQ concentration 40 mg L-1), 83.0189% and 85.5855%; in data set [1] (OH-DCQ concentration 48 mg L-1), 79.8164% and 77.4194%; in data set [1] (OH-DCQ concentration 65 mg L-1), 67.0813% and 64.9575%. Also, the Normal development in data set [1] (OH-DCQ concentration 85 mg L-1) is 48.8761% and 42.0329%.

`Oc1ccc(Cl)cc1Cl` [2,4-DCPh, 2,4-Dichlorophenol]: the log reduction at 300 µg/mL in data set [2] (pH 7.2, read-out: Log (N/N0), C. albicans) was 0.236; in data set [4] (pH 7.2, read-out: Log (N/N0), MS2), 0.549. Further, in data set [5] (buffer, pH 8.2), the half-life at 10 mg L−1 is 45 h. In data set [5] (setting [6]), the “Ln (C/C0)” value is listed as 0.

Consider `Oc1cc(I)c(O)cc1I` [2,5-DIHQ, 2,5-diiodohydroquinone], for which the log reduction at 300 µg/mL stood at 0.393 in data set [2] (setting [9]) and 1.11 in data set [4] (setting [10]). For the same compound, in data set [5] (setting [7]), the half-life at 10 mg L−1 is 0.16 h. Further, the “Ln (C/C0)” value in data set [5] (setting [8]) is 0.

Turning to `Cc1cc(O)cc(C)c1Cl` [PCMX, para-chloro-meta-xylenol, reference compound], in data set [2] (setting [9]), the log reduction at 300 µg/mL was 3.49. Further, in data set [2], the “C. albicans inactivation rate constant k” value was 3670 µL/min/mg and the “Dose for achieving 3-log inactivation of C. albicans” value was found to be 320 mg L−1. Also, in data set [3], the LD50 is on record as 3830 mg/kg. Besides, the log reduction at 300 µg/mL in data set [4] (setting [10]) was 1.03. In addition, in data set [4], the “Dose for achieving 3-log inactivation of MS2” value stood at 1010 mg L−1 and the “MS2 inactivation rate constant k” value is 600 µL/min/mg. Besides, the half-life at 10 mg L−1 in data set [5] (setting [7]) is 257 h. Also, the “Ln (C/C0)” value in data set [5] (setting [6]) is given as 0.
